Converted amounts (≈) assume the structure as drawn.
What was measured:
Type in all cases: cell-based
[1] = system: Staphylococcus aureus NCTC 10442; experiment: MIC, macrodilution broth procedure; conditions: NCTC10442
Description: These studies were performed to determine the minimum inhibitory concentration (MIC) of incensole/furanogermacren mixture. MIC values were determined using a macrodiluton broth procedure based on NCCLS Documents M7-A3 “Methods for dilution anti-microbial susceptibility tests for bacteria that grow aerobically-third edition, approved standard (1993). […] The following organisms were tested: [table]

HT29 colon carcinoma = experiment: clonogenic assay (two-layered soft agar), HT29; conditions: Homo sapiens, HT-29, continuous exposure 5-6 days, read-out: IC50 (inhibition of colony formation by 50%)
Description: (§1) In vitro cytotoxic activity of extracts containing high concentrations of incensole, furanogermacren and incensole/furanogermacren mixture were determined in several cultured tumour cell lines by performing the […] clonogenic assay. This assay assesses the inhibition of colony formation of tumour stem cells growing in soft agar by cytotoxic agents. Since tumour stem cells are responsible for the proliferate potential and aggressiveness of a tumour cell population, the clonogenic assay is highly predictive of in vivo response.
(§2) The extracts were dissolved in DMSO/water 1:1, prepared as a 30 mg/ml solution and stored at −20° C. until use. […]
(§3) Human tumour cell lines were grown in RPMI 1640 supplemented with 10% fetal calf serum and 2 mM L-glutamine. […] For treatment experiments, exponentially growing cells were trypsinized, washed twice with PBS and the percentage of viable cells was determined by hemocytometer count using trypan blue viable dye exclusion.
(§4) The clonogenic assay was performed according to a modified two-layered soft agar assay. […] Cultures were incubated at 5% CO2 and 37° C. in a humidifled atmosphere for 5-6 days under continuous exposure to drugs and monitored closely for colony growth using an inverted microscope. […]
(§5) If an ID50 or IC70 value could not be determined within the examined dose range, the lowest or highest concentration studies was used for the calculation. […]

[2] = system: PC3 Human Prostate Carcinoma; experiment: clonogenic assay (two-layered soft agar), PC3; conditions: continuous exposure 5-6 days, read-out: IC50 (inhibition of colony formation by 50%)
Description: as §1, §2, §3, §4, §5

[3] = system: Staphylococcus aureus NCTC 6571; experiment: MIC, macrodilution broth procedure; conditions: NCTC6571
Description: (§6) These studies were performed to determine the minimum inhibitory concentration (MIC) of incensole/furanogermacren mixture.
(§7) MIC values were determined using a macrodiluton broth procedure based on NCCLS Documents M7-A3 “Methods for dilution anti-microbial susceptibility tests for bacteria that grow aerobically-third edition, approved standard (1993).

[4] = system: Enterococcus feacalis NCTC 775; experiment: MIC, macrodilution broth procedure; conditions: NCTC775
Description: as §6, §7

`C/C1=C\C[C@]2(C(C)C)CC[C@@](C)(O2)[C@@H](O)CC/C(C)=C/CC1` [Incensole, incensole] gave an MIC [1] of 38 µg/mL (≈ 124 µM), an IC50 (HT29 colon carcinoma) of 70 µg/mL (≈ 228 µM) and an IC50 [2] of 6 µg/mL (≈ 19.6 µM). The MIC [3] was 38 µg/mL (≈ 124 µM) and the MIC [4] was 38 µg/mL (≈ 124 µM).

From US20040092583A1, “Treatment for inhibiting neoplastic lesions” (priority 2001, published 2004)
